From patent US6024955A, “Peptides and monoclonal antibodies” (Toagosei Co. Ltd., priority 1995, dated 2000)

How the values were obtained:
[1] = test system: Human fibrosarcoma (HT-1080); assay: Antitumor test, joint use with an existing carcinostatic, HT-1080 in nude mice; conditions: mitomycin alone, 6 mg/kg, tail vein
Experimental: Human fibrosarcoma (HT-1080) subcutaneously subcultured in nude mice was cut out in a section of about 2 mm square and inoculated subcutaneously into 6 nude mice of another group using a trocar. On the next day of the inoculation, the existing carcinostatic mitomycin (3 mg/kg) or cisplatin (5 mg/kg) was injected into the tail vein once, and the monoclonal antibody of the invention was injected into the tail vein at a dose of 12.5 μg/mouse every 4 days from the next day of the transplantation.
In those groups which received an existing carcinostatic alone, 3 or 6 mg/kg of mitomycin or 5 or 10 mg/kg of cisplatin was administered in a similar manner as employed in the joint administration groups (i.e. every 4 days into the tail vein).
In the group which received the monoclonal antibody alone, 12.5 μg/mouse of the monoclonal antibody was administered similarly (i.e. every 4 days into the tail vein).
The tumor volume of each mouse was calculated by measuring the diameter of the tumor with the passage of time. At the same time, changes in body weight were also observed.

MV833 antibody = conditions: 20 μM peptide solution coated on plate
Experimental: The 67 peptides synthesized by the above procedures correspond to the entire region of human VPF 121. Therefore, by examining the reactivity of the 67 peptides with MV833 antibody, it is possible to identify the portion of VPF with which MV833 reacts. Then, the reactivity of the 67 peptides with MV833 antibody was examined by an enzyme immunoassay. Briefly, 20 μM peptide solutions each containing one of the 67 peptides were added to a 96-well NOS plate (Coaster) and left at room temperature for 2 hours. After each well was washed with 0.1% BSA-PBS 3 times, 2% BSA-PBS was added thereto and left at room temperature for 1 hour. After the removal of 2% BSA-PBS, MV833 (in 1% BSA-PBS solution) was added to the plate and left at room temperature for 1 hour. After each well was washed with 0.1% BSA-PBS 6 times, peroxidase-labelled sheep anti-mouse IgG (Amersham) (in 0.1% BSA-PBS) was added thereto and left at room temperature for 1 hour. After each well was washed with 0.1% BSA-PBS 6 times, 0.2 M Tris-citrate buffer (pH 5.2) containing 8.3 mg/ml orthophenylenediamine dihydrochloride and 0.01% hydrogen peroxide was added for coloring. The reaction was terminated by adding 2 N sulfuric acid and then absorbance (OD490/650) was measured.

CO[C@@]12[C@H](COC(N)=O)C3=C(C(=O)C(C)=C(N)C3=O)N1C[C@@H]1N[C@@H]12 [mitomycin]
antitumor activity (tumor volume, FIG. 3) [1]: strong antitumor activity was observed | changes in body weight (FIG. 4) [1]: loss in body weight was also observed

FKPSCVPLMRCG [Peptide 32]
reactivity with MV833 antibody (absorbance OD490/650, FIG. 1) (MV833 antibody): reacted strongly

KCECRPKKDRAR [Peptide 63]
reactivity with MV833 antibody (absorbance OD490/650, FIG. 1) (MV833 antibody): reacted strongly

KPSCVPLMRCGG [Peptide 33]
reactivity with MV833 antibody (absorbance OD490/650, FIG. 1) (MV833 antibody): reacted strongly

SFLQHNKCECRP [Peptide 60]
reactivity with MV833 antibody (absorbance OD490/650, FIG. 1) (MV833 antibody): reacted strongly

YIFKPSCVPLMR [Peptide 31]
reactivity with MV833 antibody (absorbance OD490/650, FIG. 1) (MV833 antibody): reacted strongly
